Experimental data from ChEMBL document CHEMBL5252512, “Recent Progress in the Development of HIV-1 Protease Inhibitors for the Treatment of HIV/AIDS” (J Med Chem, 2016).

System: not listed separately
Test: Cytotoxicity against human MT2 cells assessed as reduction in cell viability by MTT assay
Format: toxicity, cell-based
Conditions: not given
CC(C)CN(C[C@@H](O)[C@H](Cc1ccccc1)NC(=O)O[C@H]1CO[C@H]2OCC(F)(F)[C@H]21)S(=O)(=O)c1ccc(N)cc1 showed a CC50 of 37000 nM.
COc1ccc(S(=O)(=O)N(CC(C)C)C[C@@H](O)[C@H](Cc2ccccc2)NC(=O)O[C@H]2CO[C@H]3OCC(F)(F)[C@H]32)cc1 gave a CC50 of 17500 nM.

System: not listed separately
Test: Lipophilicity, logP of the compound in Octanol/water by shake-flask method
Format: physicochemical
Conditions: not given
With CC(C)CN(C[C@@H](O)[C@H](Cc1ccccc1)NC(=O)O[C@H]1CO[C@H]2OCC(F)(F)[C@H]21)S(=O)(=O)c1ccc(N)cc1 the logP was -0.83.
Compound COc1ccc(S(=O)(=O)N(CC(C)C)C[C@@H](O)[C@H](Cc2ccccc2)NC(=O)O[C@H]2CO[C@H]3OCC(F)(F)[C@H]32)cc1 has a logP of -0.14.

System: not listed separately
Test: Lipophilicity, logD of the compound in Octanol/buffer by shake-flask method
Format: physicochemical
Conditions: not given
CC(C)CN(C[C@@H](O)[C@H](Cc1ccccc1)NC(=O)O[C@H]1CO[C@H]2OCC(F)(F)[C@H]21)S(=O)(=O)c1ccc(N)cc1 showed a logD of -1.01.
For COc1ccc(S(=O)(=O)N(CC(C)C)C[C@@H](O)[C@H](Cc2ccccc2)NC(=O)O[C@H]2CO[C@H]3OCC(F)(F)[C@H]32)cc1, the logD was -0.29.

Target: Human immunodeficiency virus type 1 protease (Human immunodeficiency virus 1, UniProt Q72874)
Test: Binding affinity to HIV1 protease assessed as inhibition constant
Conditions: not given
Work on CC(C)CN(C[C@@H](O)[C@H](Cc1ccccc1)NC(=O)O[C@H]1CO[C@H]2OCC(F)(F)[C@H]21)S(=O)(=O)c1ccc(N)cc1 yielded a Ki of 0.0058 nM.
COc1ccc(S(=O)(=O)N(CC(C)C)C[C@@H](O)[C@H](Cc2ccccc2)NC(=O)O[C@H]2CO[C@H]3OCC(F)(F)[C@H]32)cc1 gave a Ki of 0.8 nM.

System: not listed separately
Test: Apparent permeability in rat astrocytes/rat pericytes/monkey endothelial cells triple cell co-culture system incubated for 30 mins by spectrophotometric analysis
Format: ADME, cell-based
Conditions: not given
For CC(C)CN(C[C@@H](O)[C@H](Cc1ccccc1)NC(=O)O[C@H]1CO[C@H]2OCC(F)(F)[C@H]21)S(=O)(=O)c1ccc(N)cc1, the Papp at 0.5 h was 47.8 ×10⁻⁶ cm/s.
COc1ccc(S(=O)(=O)N(CC(C)C)C[C@@H](O)[C@H](Cc2ccccc2)NC(=O)O[C@H]2CO[C@H]3OCC(F)(F)[C@H]32)cc1 showed a Papp at 0.5 h of 61.8 ×10⁻⁶ cm/s.

System: Human immunodeficiency virus 1
Test: Ratio of EC50 for antiviral activity against HIV1-G to EC50 for antiviral activity against wild type HIV1 ERS104pre
Format: functional
Conditions: not given
With CC(C)CN(C[C@@H](O)[C@H](Cc1ccccc1)NC(=O)O[C@H]1CO[C@H]2OCC(F)(F)[C@H]21)S(=O)(=O)c1ccc(N)cc1 the “Ratio EC50” value was 2.
For COc1ccc(S(=O)(=O)N(CC(C)C)C[C@@H](O)[C@H](Cc2ccccc2)NC(=O)O[C@H]2CO[C@H]3OCC(F)(F)[C@H]32)cc1, the “Ratio EC50” value was 2.

System: Human immunodeficiency virus 1
Test: Ratio of EC50 for antiviral activity against HIV1-B to EC50 for antiviral activity against wild type HIV1 ERS104pre
Format: functional
Conditions: not given
In the case of CC(C)CN(C[C@@H](O)[C@H](Cc1ccccc1)NC(=O)O[C@H]1CO[C@H]2OCC(F)(F)[C@H]21)S(=O)(=O)c1ccc(N)cc1, the “Ratio EC50” value is reported as 3.
For COc1ccc(S(=O)(=O)N(CC(C)C)C[C@@H](O)[C@H](Cc2ccccc2)NC(=O)O[C@H]2CO[C@H]3OCC(F)(F)[C@H]32)cc1, the “Ratio EC50” value was 7.

System: Human immunodeficiency virus 1
Test: Ratio of EC50 for antiviral activity against HIV1-TM to EC50 for antiviral activity against wild type HIV1 ERS104pre
Format: functional
Conditions: not given
In the case of CC(C)CN(C[C@@H](O)[C@H](Cc1ccccc1)NC(=O)O[C@H]1CO[C@H]2OCC(F)(F)[C@H]21)S(=O)(=O)c1ccc(N)cc1, the “Ratio EC50” value is reported as 2.
In the case of COc1ccc(S(=O)(=O)N(CC(C)C)C[C@@H](O)[C@H](Cc2ccccc2)NC(=O)O[C@H]2CO[C@H]3OCC(F)(F)[C@H]32)cc1, the “Ratio EC50” value is reported as 2.

System: Human immunodeficiency virus 1
Test: Antiviral activity against multidrug-resistant HIV1-MM infected in phytohemagglutinin-activated human PBMC cells assessed as inhibition of virus-induced cytopathic effect measured after 7 days by MTT assay
Format: functional, organism-based
Conditions: Human immunodeficiency virus 1, MM, 168 h
CC(C)CN(C[C@@H](O)[C@H](Cc1ccccc1)NC(=O)O[C@H]1CO[C@H]2OCC(F)(F)[C@H]21)S(=O)(=O)c1ccc(N)cc1 showed an EC50 of 3 nM.
Work on COc1ccc(S(=O)(=O)N(CC(C)C)C[C@@H](O)[C@H](Cc2ccccc2)NC(=O)O[C@H]2CO[C@H]3OCC(F)(F)[C@H]32)cc1 yielded an EC50 of 2 nM.

System: Human immunodeficiency virus 1
Test: Antiviral activity against HIV1 LAI infected in human MT2 cells assessed as inhibition of virus-induced cytopathic effect by MTT assay
Format: functional, organism-based
Conditions: Human immunodeficiency virus 1, LAI
CC(C)CN(C[C@@H](O)[C@H](Cc1ccccc1)NC(=O)O[C@H]1CO[C@H]2OCC(F)(F)[C@H]21)S(=O)(=O)c1ccc(N)cc1 gave an EC50 of 3 nM.
Compound COc1ccc(S(=O)(=O)N(CC(C)C)C[C@@H](O)[C@H](Cc2ccccc2)NC(=O)O[C@H]2CO[C@H]3OCC(F)(F)[C@H]32)cc1 has an EC50 of 0.8 nM.

System: Human immunodeficiency virus 1
Test: Antiviral activity against multidrug-resistant HIV1-TM infected in phytohemagglutinin-activated human PBMC cells assessed as inhibition of virus-induced cytopathic effect measured after 7 days by MTT assay
Format: functional, organism-based
Conditions: Human immunodeficiency virus 1, TM, 168 h
Work on CC(C)CN(C[C@@H](O)[C@H](Cc1ccccc1)NC(=O)O[C@H]1CO[C@H]2OCC(F)(F)[C@H]21)S(=O)(=O)c1ccc(N)cc1 yielded an EC50 of 4 nM.
With COc1ccc(S(=O)(=O)N(CC(C)C)C[C@@H](O)[C@H](Cc2ccccc2)NC(=O)O[C@H]2CO[C@H]3OCC(F)(F)[C@H]32)cc1 the EC50 was 4 nM.

System: Human immunodeficiency virus 1
Test: Antiviral activity against multidrug-resistant HIV1-B infected in phytohemagglutinin-activated human PBMC cells assessed as inhibition of virus-induced cytopathic effect measured after 7 days by MTT assay
Format: functional, organism-based
Conditions: Human immunodeficiency virus 1, B, 168 h
With CC(C)CN(C[C@@H](O)[C@H](Cc1ccccc1)NC(=O)O[C@H]1CO[C@H]2OCC(F)(F)[C@H]21)S(=O)(=O)c1ccc(N)cc1 the EC50 was 11 nM.
In the case of COc1ccc(S(=O)(=O)N(CC(C)C)C[C@@H](O)[C@H](Cc2ccccc2)NC(=O)O[C@H]2CO[C@H]3OCC(F)(F)[C@H]32)cc1, the EC50 is reported as 14 nM.

System: Human immunodeficiency virus 1
Test: Ratio of EC50 for antiviral activity against HIV1-JSL to EC50 for antiviral activity against wild type HIV1 ERS104pre
Format: functional
Conditions: not given
For CC(C)CN(C[C@@H](O)[C@H](Cc1ccccc1)NC(=O)O[C@H]1CO[C@H]2OCC(F)(F)[C@H]21)S(=O)(=O)c1ccc(N)cc1, the “Ratio EC50” value was 7.
For COc1ccc(S(=O)(=O)N(CC(C)C)C[C@@H](O)[C@H](Cc2ccccc2)NC(=O)O[C@H]2CO[C@H]3OCC(F)(F)[C@H]32)cc1, the “Ratio EC50” value was 10.

System: not listed separately
Test: Selectivity index, ratio of CC50 for human MT2 cells to IC50 for antiviral activity against HIV1 LAI
Format: toxicity
Conditions: read-out: Ratio CC50/EC50
CC(C)CN(C[C@@H](O)[C@H](Cc1ccccc1)NC(=O)O[C@H]1CO[C@H]2OCC(F)(F)[C@H]21)S(=O)(=O)c1ccc(N)cc1 showed a selectivity ratio of 12300.
For COc1ccc(S(=O)(=O)N(CC(C)C)C[C@@H](O)[C@H](Cc2ccccc2)NC(=O)O[C@H]2CO[C@H]3OCC(F)(F)[C@H]32)cc1, the selectivity ratio was 21900.

System: Human immunodeficiency virus 1
Test: Antiviral activity against wild type HIV1 ERS104pre infected in human PBMC cells assessed as inhibition of virus-induced cytopathic effect measured after 7 days by MTT assay
Format: functional, organism-based
Conditions: Human immunodeficiency virus 1, ERS104pre, 168 h
With CC(C)CN(C[C@@H](O)[C@H](Cc1ccccc1)NC(=O)O[C@H]1CO[C@H]2OCC(F)(F)[C@H]21)S(=O)(=O)c1ccc(N)cc1 the EC50 was 2.7 nM.
With COc1ccc(S(=O)(=O)N(CC(C)C)C[C@@H](O)[C@H](Cc2ccccc2)NC(=O)O[C@H]2CO[C@H]3OCC(F)(F)[C@H]32)cc1 the EC50 was 2.3 nM.

System: Human immunodeficiency virus 1
Test: Ratio of EC50 for antiviral activity against HIV1-MM to EC50 for antiviral activity against wild type HIV1 ERS104pre
Format: functional
Conditions: not given
For CC(C)CN(C[C@@H](O)[C@H](Cc1ccccc1)NC(=O)O[C@H]1CO[C@H]2OCC(F)(F)[C@H]21)S(=O)(=O)c1ccc(N)cc1, the “Ratio EC50” value was 1.
In the case of COc1ccc(S(=O)(=O)N(CC(C)C)C[C@@H](O)[C@H](Cc2ccccc2)NC(=O)O[C@H]2CO[C@H]3OCC(F)(F)[C@H]32)cc1, the “Ratio EC50” value is reported as 1.

System: Human immunodeficiency virus 1
Test: Antiviral activity against multidrug-resistant HIV1-G infected in phytohemagglutinin-activated human PBMC cells assessed as inhibition of virus-induced cytopathic effect measured after 7 days by MTT assay
Format: functional, organism-based
Conditions: Human immunodeficiency virus 1, G, 168 h
CC(C)CN(C[C@@H](O)[C@H](Cc1ccccc1)NC(=O)O[C@H]1CO[C@H]2OCC(F)(F)[C@H]21)S(=O)(=O)c1ccc(N)cc1 gave an EC50 of 4 nM.
Work on COc1ccc(S(=O)(=O)N(CC(C)C)C[C@@H](O)[C@H](Cc2ccccc2)NC(=O)O[C@H]2CO[C@H]3OCC(F)(F)[C@H]32)cc1 yielded an EC50 of 4 nM.

System: Human immunodeficiency virus 1
Test: Antiviral activity against multidrug-resistant HIV1-C infected in phytohemagglutinin-activated human PBMC cells assessed as inhibition of virus-induced cytopathic effect measured after 7 days by MTT assay
Format: functional, organism-based
Conditions: Human immunodeficiency virus 1, C, 168 h
CC(C)CN(C[C@@H](O)[C@H](Cc1ccccc1)NC(=O)O[C@H]1CO[C@H]2OCC(F)(F)[C@H]21)S(=O)(=O)c1ccc(N)cc1 showed an EC50 of 2 nM.
In the case of COc1ccc(S(=O)(=O)N(CC(C)C)C[C@@H](O)[C@H](Cc2ccccc2)NC(=O)O[C@H]2CO[C@H]3OCC(F)(F)[C@H]32)cc1, the EC50 is reported as 2 nM.

System: Human immunodeficiency virus 1
Test: Antiviral activity against multidrug-resistant HIV1-JSL infected in phytohemagglutinin-activated human PBMC cells assessed as inhibition of virus-induced cytopathic effect measured after 7 days by MTT assay
Format: functional, organism-based
Conditions: Human immunodeficiency virus 1, JSL, 168 h
With CC(C)CN(C[C@@H](O)[C@H](Cc1ccccc1)NC(=O)O[C@H]1CO[C@H]2OCC(F)(F)[C@H]21)S(=O)(=O)c1ccc(N)cc1 the EC50 was 20 nM.
Compound COc1ccc(S(=O)(=O)N(CC(C)C)C[C@@H](O)[C@H](Cc2ccccc2)NC(=O)O[C@H]2CO[C@H]3OCC(F)(F)[C@H]32)cc1 has an EC50 of 21 nM.

System: Human immunodeficiency virus 1
Test: Ratio of EC50 for antiviral activity against HIV1-C to EC50 for antiviral activity against wild type HIV1 ERS104pre
Format: functional
Conditions: not given
For CC(C)CN(C[C@@H](O)[C@H](Cc1ccccc1)NC(=O)O[C@H]1CO[C@H]2OCC(F)(F)[C@H]21)S(=O)(=O)c1ccc(N)cc1, the “Ratio EC50” value was 1.
In the case of COc1ccc(S(=O)(=O)N(CC(C)C)C[C@@H](O)[C@H](Cc2ccccc2)NC(=O)O[C@H]2CO[C@H]3OCC(F)(F)[C@H]32)cc1, the “Ratio EC50” value is reported as 1.
